pIC50: −log10 of the molar value.
Columns and labels:
Test in all cases: Enzymatic Activity Assay
Histone deacetylase 8 = target: T1, Histone deacetylase 8 (Homo sapiens, UniProt Q9BY41)
T1 sequence (Q9BY41 whole entry): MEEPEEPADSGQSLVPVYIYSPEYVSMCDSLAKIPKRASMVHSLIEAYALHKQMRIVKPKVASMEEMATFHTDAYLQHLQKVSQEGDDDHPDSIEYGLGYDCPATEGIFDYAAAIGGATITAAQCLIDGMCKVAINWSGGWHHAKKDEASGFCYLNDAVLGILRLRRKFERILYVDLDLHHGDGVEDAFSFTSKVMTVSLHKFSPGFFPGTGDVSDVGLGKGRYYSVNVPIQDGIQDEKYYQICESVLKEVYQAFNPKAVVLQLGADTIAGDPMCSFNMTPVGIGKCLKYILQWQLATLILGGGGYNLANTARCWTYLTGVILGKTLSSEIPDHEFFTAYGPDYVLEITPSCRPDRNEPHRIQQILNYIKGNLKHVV
Protocol: (§1) After a period of preincubation (incubation times and temperatures vary for different isoforms and are shown in table 1) 25 μL of solution containing the substrate were added. […] Enzymatic activity on recombinant human HDAC6 and HDAC1 was evaluated (Table 2) for each synthesized compound.

Histone deacetylase 2 = Histone deacetylase 2 (Homo sapiens, UniProt Q92769)
Histone deacetylase 2, sequence (Q92769 whole entry): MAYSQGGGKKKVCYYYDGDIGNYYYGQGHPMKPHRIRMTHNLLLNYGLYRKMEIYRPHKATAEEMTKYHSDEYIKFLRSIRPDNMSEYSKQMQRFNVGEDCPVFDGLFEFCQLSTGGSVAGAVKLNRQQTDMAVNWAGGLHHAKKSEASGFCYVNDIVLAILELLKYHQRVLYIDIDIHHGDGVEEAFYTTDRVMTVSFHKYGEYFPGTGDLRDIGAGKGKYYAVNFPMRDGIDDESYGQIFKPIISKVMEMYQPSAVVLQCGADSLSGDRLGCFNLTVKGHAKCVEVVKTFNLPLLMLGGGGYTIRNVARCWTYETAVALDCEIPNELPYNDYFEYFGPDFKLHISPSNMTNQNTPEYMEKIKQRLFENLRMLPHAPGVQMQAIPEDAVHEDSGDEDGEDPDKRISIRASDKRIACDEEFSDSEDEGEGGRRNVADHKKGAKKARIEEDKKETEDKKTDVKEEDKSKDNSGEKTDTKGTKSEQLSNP
Protocol: as §1

[1] = target: T2, Polyamine deacetylase HDAC10 (Homo sapiens, UniProt Q969S8)
T2 sequence (Q969S8 whole entry): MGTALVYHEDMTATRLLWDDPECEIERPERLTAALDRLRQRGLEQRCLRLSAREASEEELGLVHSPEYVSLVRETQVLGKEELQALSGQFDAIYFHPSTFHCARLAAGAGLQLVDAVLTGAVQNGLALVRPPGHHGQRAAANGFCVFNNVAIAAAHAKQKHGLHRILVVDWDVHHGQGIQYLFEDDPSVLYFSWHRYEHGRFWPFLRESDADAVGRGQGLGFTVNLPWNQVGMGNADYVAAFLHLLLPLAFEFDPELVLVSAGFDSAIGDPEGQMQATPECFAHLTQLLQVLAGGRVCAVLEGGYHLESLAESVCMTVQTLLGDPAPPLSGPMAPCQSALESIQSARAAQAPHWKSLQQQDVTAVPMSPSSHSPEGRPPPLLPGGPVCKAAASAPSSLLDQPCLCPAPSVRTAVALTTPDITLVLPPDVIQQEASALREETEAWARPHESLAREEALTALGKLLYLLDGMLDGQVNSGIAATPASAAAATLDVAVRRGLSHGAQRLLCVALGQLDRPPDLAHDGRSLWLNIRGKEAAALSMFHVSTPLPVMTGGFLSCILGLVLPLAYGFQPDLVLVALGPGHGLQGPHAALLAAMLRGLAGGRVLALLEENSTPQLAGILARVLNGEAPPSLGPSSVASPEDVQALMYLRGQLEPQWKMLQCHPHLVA
Protocol: as §1

Histone deacetylase 3 = Histone deacetylase 3 (Homo sapiens, UniProt O15379)
Histone deacetylase 3, sequence (O15379 whole entry): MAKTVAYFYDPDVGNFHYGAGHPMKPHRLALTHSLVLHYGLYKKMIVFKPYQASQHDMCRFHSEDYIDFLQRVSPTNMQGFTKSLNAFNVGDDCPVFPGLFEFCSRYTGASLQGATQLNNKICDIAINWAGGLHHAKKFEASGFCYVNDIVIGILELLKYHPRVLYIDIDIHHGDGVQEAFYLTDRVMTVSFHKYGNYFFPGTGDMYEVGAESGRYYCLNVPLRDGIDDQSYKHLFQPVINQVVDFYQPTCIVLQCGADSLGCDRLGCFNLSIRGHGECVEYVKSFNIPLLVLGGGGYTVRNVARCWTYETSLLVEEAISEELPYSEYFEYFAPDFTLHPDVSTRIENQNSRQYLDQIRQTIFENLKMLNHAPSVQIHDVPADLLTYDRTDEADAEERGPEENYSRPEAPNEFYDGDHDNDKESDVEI
Protocol: as §1

Histone deacetylase 7 = target: T3, Histone deacetylase 7 (Homo sapiens, UniProt Q8WUI4)
T3 sequence (Q8WUI4 whole entry): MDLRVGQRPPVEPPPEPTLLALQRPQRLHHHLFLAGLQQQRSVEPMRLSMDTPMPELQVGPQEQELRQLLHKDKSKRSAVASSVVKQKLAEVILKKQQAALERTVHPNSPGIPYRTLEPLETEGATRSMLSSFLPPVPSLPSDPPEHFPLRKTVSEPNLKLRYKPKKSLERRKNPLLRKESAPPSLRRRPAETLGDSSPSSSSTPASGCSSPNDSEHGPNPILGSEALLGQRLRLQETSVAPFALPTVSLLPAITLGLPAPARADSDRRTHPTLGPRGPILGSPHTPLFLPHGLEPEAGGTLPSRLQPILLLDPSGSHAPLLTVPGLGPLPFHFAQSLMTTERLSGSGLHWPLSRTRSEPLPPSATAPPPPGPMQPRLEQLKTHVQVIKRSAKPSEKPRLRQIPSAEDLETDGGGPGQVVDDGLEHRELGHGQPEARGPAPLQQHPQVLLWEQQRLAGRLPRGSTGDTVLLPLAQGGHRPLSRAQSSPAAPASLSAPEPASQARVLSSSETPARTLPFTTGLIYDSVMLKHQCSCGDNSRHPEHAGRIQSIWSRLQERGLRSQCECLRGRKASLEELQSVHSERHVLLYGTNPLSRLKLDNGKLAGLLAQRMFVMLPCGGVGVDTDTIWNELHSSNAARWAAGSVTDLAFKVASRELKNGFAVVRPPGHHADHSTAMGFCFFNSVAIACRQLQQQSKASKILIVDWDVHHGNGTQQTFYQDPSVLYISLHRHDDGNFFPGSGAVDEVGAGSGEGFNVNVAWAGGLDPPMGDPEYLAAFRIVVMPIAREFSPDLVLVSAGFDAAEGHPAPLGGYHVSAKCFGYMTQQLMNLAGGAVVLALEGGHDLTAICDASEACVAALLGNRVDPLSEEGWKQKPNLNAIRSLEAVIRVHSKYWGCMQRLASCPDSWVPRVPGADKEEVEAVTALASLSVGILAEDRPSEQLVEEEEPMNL
Protocol: as §1

Histone deacetylase 11 = target: T4, Histone deacetylase 11 (Homo sapiens, UniProt Q96DB2)
T4 sequence (Q96DB2 whole entry): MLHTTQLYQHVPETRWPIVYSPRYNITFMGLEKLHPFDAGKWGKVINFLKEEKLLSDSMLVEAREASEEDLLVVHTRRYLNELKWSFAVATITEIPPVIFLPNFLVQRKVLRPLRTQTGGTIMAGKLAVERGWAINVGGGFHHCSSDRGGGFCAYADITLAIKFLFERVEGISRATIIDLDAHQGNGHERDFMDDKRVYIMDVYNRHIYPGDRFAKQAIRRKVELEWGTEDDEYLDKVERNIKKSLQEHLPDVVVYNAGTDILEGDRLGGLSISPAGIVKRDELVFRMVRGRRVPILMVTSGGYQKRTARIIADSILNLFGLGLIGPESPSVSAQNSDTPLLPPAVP
Protocol: as §1

Histone deacetylase 9 = Histone deacetylase 9 (Homo sapiens, UniProt Q9UKV0)
Histone deacetylase 9, sequence (Q9UKV0 whole entry): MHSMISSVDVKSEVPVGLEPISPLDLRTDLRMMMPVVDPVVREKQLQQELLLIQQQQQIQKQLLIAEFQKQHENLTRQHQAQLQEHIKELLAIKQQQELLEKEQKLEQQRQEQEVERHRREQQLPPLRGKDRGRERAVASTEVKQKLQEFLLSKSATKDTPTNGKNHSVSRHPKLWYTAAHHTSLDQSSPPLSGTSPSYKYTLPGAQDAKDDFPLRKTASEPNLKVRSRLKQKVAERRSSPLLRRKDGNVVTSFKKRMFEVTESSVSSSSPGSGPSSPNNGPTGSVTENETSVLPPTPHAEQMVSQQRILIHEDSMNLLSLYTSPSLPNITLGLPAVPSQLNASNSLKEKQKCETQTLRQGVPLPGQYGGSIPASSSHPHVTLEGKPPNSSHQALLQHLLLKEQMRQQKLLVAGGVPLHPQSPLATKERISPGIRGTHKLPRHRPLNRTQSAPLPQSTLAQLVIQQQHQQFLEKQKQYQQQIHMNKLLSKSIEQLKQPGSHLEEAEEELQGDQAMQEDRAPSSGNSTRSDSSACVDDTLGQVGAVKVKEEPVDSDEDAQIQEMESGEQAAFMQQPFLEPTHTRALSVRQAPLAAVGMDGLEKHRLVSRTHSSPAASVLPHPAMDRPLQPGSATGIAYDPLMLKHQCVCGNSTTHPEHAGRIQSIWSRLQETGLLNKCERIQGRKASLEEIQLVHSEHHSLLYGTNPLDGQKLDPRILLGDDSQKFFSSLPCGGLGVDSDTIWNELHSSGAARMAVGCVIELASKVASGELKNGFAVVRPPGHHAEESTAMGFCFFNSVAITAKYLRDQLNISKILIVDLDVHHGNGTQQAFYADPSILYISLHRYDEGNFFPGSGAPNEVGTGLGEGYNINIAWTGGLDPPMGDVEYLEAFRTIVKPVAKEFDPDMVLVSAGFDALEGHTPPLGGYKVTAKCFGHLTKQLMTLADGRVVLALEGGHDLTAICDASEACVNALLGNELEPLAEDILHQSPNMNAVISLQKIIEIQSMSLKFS
Protocol: as §1

| SMILES | pIC50 (Histone deacetylase 8) | pIC50 (Histone deacetylase 2) | pIC50 [1] | pIC50 (Histone deacetylase 3) | pIC50 (Histone deacetylase 7) | pIC50 (Histone deacetylase 11) | pIC50 (Histone deacetylase 9) |
| --- | --- | --- | --- | --- | --- | --- | --- |
| Nc1nc2ccc(-c3cn(Cc4ccc(-c5nnc(C(F)F)o5)cc4)nn3)cc2s1 [US20230286970, Compound 14] | < 3.70 | < 4.52 | < 4.52 | < 4.52 | < 4.52 | < 4.52 | < 4.52 |
| Nc1ccc(-c2cn(Cc3ccc(-c4nnc(C(F)F)o4)c(F)c3)nn2)cn1 [US20230286970, Compound 15] | < 3.70 | < 4.52 | < 4.52 | < 4.52 | < 4.52 | < 4.52 | < 4.52 |

Source: BindingDB's records for patent US20230286970 (Italfarmaco, 2023)
